Laboratory results from article PMC9780108, “An intrinsically disordered antimicrobial peptide dendrimer from stereorandomized virtual screening” (Cell Reports. Physical Science, 2022).
Converted amounts (≈) assume the structure as drawn. Positions of bridges follow the written chain, without caps; N, C: chain ends. Non-standard residues stand in square brackets, D forms with d. Residues, ends and D or L forms follow the SMILES beside them. Groups on a side chain read outwards from the residue. Chains are numbered I, II in the order given. *: point of attachment. X4 = CC(C)C[C@@H](NC(=O)CCCCCN)C(=O)NCCCC[C@@H](NC(=O)[C@@H](CC(C)C)NC(=O)CCCCCN)C(=O)*; Ahx = NCCCCCC(=O)O

How the values were obtained:
[1] = tested on: E. coli W3110; conditions: for MIC at pH 5.0, E. coli W3110: W3110, pH 5; for MIC at pH 7.4, E. coli W3110: W3110, pH 7.4; for MIC at pH 8.0, E. coli W3110: W3110, pH 8
[2] = tested on: K. pneumoniae NCTC 418; conditions: for MIC at pH 5.0, K. pneumoniae NCTC 418: NCTC 418, pH 5; for MIC at pH 7.4, K. pneumoniae NCTC 418: NCTC 418, pH 7.4; for MIC at pH 8.0, K. pneumoniae NCTC 418: NCTC 418, pH 8
[3] = tested on: P. aeruginosa PAO1; conditions: for MIC at pH 5.0, P. aeruginosa PAO1: PAO1, pH 5; for MIC at pH 7.4, P. aeruginosa PAO1: PAO1, pH 7.4; for MIC at pH 8.0, P. aeruginosa PAO1: PAO1, pH 8
[4] = tested on: A. baumannii ATCC 19606; conditions: for MIC at pH 5.0, A. baumannii ATCC 19606: ATCC 19606, pH 5; for MIC at pH 7.4, A. baumannii ATCC 19606: ATCC 19606, pH 7.4; for MIC at pH 8.0, A. baumannii ATCC 19606: ATCC 19606, pH 8
[5] = tested on: S aureus COL (methicillin-resistant Staphylococcus aureus); conditions: for MIC at pH 5.0, S aureus COL: COL (methicillin-resistant, pH 5); for MIC at pH 7.4, S aureus COL: COL (methicillin-resistant, pH 7.4); for MIC at pH 8.0, S aureus COL: COL (methicillin-resistant, pH 8)
[6] = tested on: HEK293 cell line; assay type: cell-based; conditions: 48 h
Method: HEK 293 cell line were cultured and maintained in DMEM (Dulbeccos modified Eagle
medium, Sigma Aldrich) supplemented with 10% FBS (Sigma Aldrich) and 1%
penicillin/streptomycin. Cells were incubated in a humidified incubator at 37°C in the presence
HEK 293 cell were seeded into 96 well plates at the density of 2 × 10^3 cells/well and incubated
in DMEM containing 10% FBS for 10-14 hours at 37°C in the presence of 5% CO2. The next
day, stock solution of compounds were prepared at concentration of 2 mg/mL in DMEM
containing 10% FBS. 1/2 or 1/3 serial dilution of the peptide dendrimers from 2 mg/mL or 200
µg/mL were performed in DMEM containing 10% FBS. The medium was removed from cell
culture and replaced with the compounds at different concentration after washing with PBS.
The cells were incubated in DMEM containing 10% FBS at 37°C in the presence of 5% CO 2.
Negative control was untreated cell culture without compounds and blank control was wells
without cell but only medium. After 48 hours, a final concentration of 10% AlamarBlue®
(Thermo Fisher Scientific, Reinach, CH) was added to each well . The cells were incubated for
3-5 hours at 37°C with 5% CO 2. The fluorescence was then measured on a Tecan Infinite
M1000 Pro plate reader at λex = 560 nm and λem = 590 nm. The value was normalized
according to the untreated cells.

MIC at pH 5.0, E. coli W3110 [1]	MIC at pH 7.4, E. coli W3110 [1]	MIC at pH 8.0, E. coli W3110 [1]	MIC at pH 5.0, K. pneumoniae NCTC 418 [2]	MIC at pH 7.4, K. pneumoniae NCTC 418 [2]	MIC at pH 8.0, K. pneumoniae NCTC 418 [2]	MIC at pH 5.0, P. aeruginosa PAO1 [3]	MIC at pH 7.4, P. aeruginosa PAO1 [3]	MIC at pH 8.0, P. aeruginosa PAO1 [3]	MIC at pH 5.0, A. baumannii ATCC 19606 [4]	MIC at pH 7.4, A. baumannii ATCC 19606 [4]	MIC at pH 8.0, A. baumannii ATCC 19606 [4]	MIC at pH 5.0, S aureus COL [5]	MIC at pH 7.4, S aureus COL [5]	MIC at pH 8.0, S aureus COL [5]	SMILES	IC50 HEK293 [6]
32 μg/mL	8 μg/mL	4 μg/mL	> 64 μg/mL	16 μg/mL	16 μg/mL	32 μg/mL	8 μg/mL	8 μg/mL	32 μg/mL	8 μg/mL	4 μg/mL	> 64 μg/mL	> 64 μg/mL	32 μg/mL	CC(C)C[C@@H](NC(=O)[C@@H](CC(C)C)NC(=O)[C@@H](CCCCN)NC(=O)[C@@H](CCCCNC(=O)[C@@H](CC(C)C)NC(=O)[C@@H](CC(C)C)NC(=O)[C@@H](CCCCNC(=O)[C@@H](CC(C)C)NC(=O)[C@@H](CCCCN)NC(=O)[C@@H](CCCCNC(=O)[C@@H](CC(C)C)NC(=O)[C@H](N)CCCCN)NC(=O)[C@@H](CC(C)C)NC(=O)[C@H](N)CCCCN)NC(=O)[C@@H](CC(C)C)NC(=O)[C@@H](CCCCN)NC(=O)[C@@H](CCCCNC(=O)[C@@H](CC(C)C)NC(=O)[C@H](N)CCCCN)NC(=O)[C@@H](CC(C)C)NC(=O)[C@H](N)CCCCN)NC(=O)[C@@H](CC(C)C)NC(=O)[C@@H](CC(C)C)NC(=O)[C@@H](CCCCNC(=O)[C@@H](CC(C)C)NC(=O)[C@@H](CCCCN)NC(=O)[C@@H](CCCCNC(=O)[C@@H](CC(C)C)NC(=O)[C@H](N)CCCCN)NC(=O)[C@@H](CC(C)C)NC(=O)[C@H](N)CCCCN)NC(=O)[C@@H](CC(C)C)NC(=O)[C@@H](CCCCN)NC(=O)[C@@H](CCCCNC(=O)[C@@H](CC(C)C)NC(=O)[C@H](N)CCCCN)NC(=O)[C@@H](CC(C)C)NC(=O)[C@H](N)CCCCN)C(N)=O [D-T25, reference compound] (HELM PEPTIDE1{[dK].[dL].[dK].[dK].[dL].[dK].[dL].[dL].[dK].[dK].[dL].[dL].[am]}|PEPTIDE2{[dK].[dL]}|PEPTIDE3{[dK].[dL].[dK].[dK].[dL].[dK].[dL].[dL]}|PEPTIDE4{[dK].[dL]}|PEPTIDE5{[dK].[dL].[dK].[dK].[dL]}|PEPTIDE6{[dK].[dL]}|PEPTIDE7{[dK].[dL].[dK].[dK].[dL]}|PEPTIDE8{[dK].[dL]}$PEPTIDE1,PEPTIDE2,3:R3-2:R2|PEPTIDE3,PEPTIDE4,3:R3-2:R2|PEPTIDE5,PEPTIDE6,3:R3-2:R2|PEPTIDE7,PEPTIDE8,3:R3-2:R2|PEPTIDE1,PEPTIDE7,6:R3-5:R2|PEPTIDE1,PEPTIDE3,9:R3-8:R2|PEPTIDE3,PEPTIDE5,6:R3-5:R2$$$V2.0)	33 ± 3 µg/mL (≈ 7.15 µM)
32 μg/mL	64 μg/mL	32 μg/mL	>64/>64/>64 μg/mL	>64/>64/>64 μg/mL	>64/>64/>64 μg/mL	32 μg/mL	64 μg/mL	32 μg/mL	32 μg/mL	64 μg/mL	32 μg/mL	> 64 μg/mL	> 64 μg/mL	32 μg/mL	CC(C)C[C@@H](NC(=O)[C@@H](CC(C)C)NC(=O)[C@@H](CC(C)C)NC(=O)[C@@H](CCCCNC(=O)[C@@H](CC(C)C)NC(=O)[C@@H](CC(C)C)NC(=O)[C@@H](CCCCNC(=O)[C@@H](CCCCN)NC(=O)[C@@H](CC(C)C)NC(=O)[C@@H](CCCCNC(=O)[C@@H](CC(C)C)NC(=O)[C@H](N)CCCCN)NC(=O)[C@@H](CC(C)C)NC(=O)[C@H](N)CCCCN)NC(=O)[C@@H](CCCCN)NC(=O)[C@@H](CC(C)C)NC(=O)[C@@H](CCCCNC(=O)[C@@H](CC(C)C)NC(=O)[C@H](N)CCCCN)NC(=O)[C@@H](CC(C)C)NC(=O)[C@H](N)CCCCN)NC(=O)[C@@H](CC(C)C)NC(=O)[C@@H](CC(C)C)NC(=O)[C@@H](CCCCNC(=O)[C@@H](CCCCN)NC(=O)[C@@H](CC(C)C)NC(=O)[C@@H](CCCCNC(=O)[C@@H](CC(C)C)NC(=O)[C@H](N)CCCCN)NC(=O)[C@@H](CC(C)C)NC(=O)[C@H](N)CCCCN)NC(=O)[C@@H](CCCCN)NC(=O)[C@@H](CC(C)C)NC(=O)[C@@H](CCCCNC(=O)[C@@H](CC(C)C)NC(=O)[C@H](N)CCCCN)NC(=O)[C@@H](CC(C)C)NC(=O)[C@H](N)CCCCN)C(N)=O [D-X18] (HELM PEPTIDE1{[dK].[dL].[dK].[dL].[dK].[dK].[dL].[dL].[dK].[dL].[dL].[dL].[am]}|PEPTIDE2{[dK].[dL]}|PEPTIDE3{[dK].[dL].[dK].[dL].[dK].[dK].[dL].[dL]}|PEPTIDE4{[dK].[dL]}|PEPTIDE5{[dK].[dL].[dK].[dL].[dK]}|PEPTIDE6{[dK].[dL]}|PEPTIDE7{[dK].[dL].[dK].[dL].[dK]}|PEPTIDE8{[dK].[dL]}$PEPTIDE1,PEPTIDE2,3:R3-2:R2|PEPTIDE3,PEPTIDE4,3:R3-2:R2|PEPTIDE5,PEPTIDE6,3:R3-2:R2|PEPTIDE7,PEPTIDE8,3:R3-2:R2|PEPTIDE1,PEPTIDE7,6:R3-5:R2|PEPTIDE1,PEPTIDE3,9:R3-8:R2|PEPTIDE3,PEPTIDE5,6:R3-5:R2$$$V2.0)	47 ± 12 µg/mL (≈ 10.2 µM)
32 μg/mL	> 64 μg/mL	32 μg/mL	>64/>64/>64 μg/mL	>64/>64/>64 μg/mL	>64/>64/>64 μg/mL	64/>64/64 μg/mL	64/>64/64 μg/mL	64/>64/64 μg/mL	32 μg/mL	> 64 μg/mL	16 μg/mL	> 64 μg/mL	> 64 μg/mL	16 μg/mL	CC(C)C[C@@H](NC(=O)[C@@H](CC(C)C)NC(=O)[C@@H](CC(C)C)NC(=O)[C@@H](CCCCNC(=O)[C@@H](CC(C)C)NC(=O)[C@@H](CC(C)C)NC(=O)[C@@H](CCCCNC(=O)[C@@H](CCCCN)NC(=O)[C@@H](CC(C)C)NC(=O)[C@@H](CCCCNC(=O)[C@@H](CC(C)C)NC(=O)CCCCCN)NC(=O)[C@@H](CC(C)C)NC(=O)CCCCCN)NC(=O)[C@@H](CCCCN)NC(=O)[C@@H](CC(C)C)NC(=O)[C@@H](CCCCNC(=O)[C@@H](CC(C)C)NC(=O)CCCCCN)NC(=O)[C@@H](CC(C)C)NC(=O)CCCCCN)NC(=O)[C@@H](CC(C)C)NC(=O)[C@@H](CC(C)C)NC(=O)[C@@H](CCCCNC(=O)[C@@H](CCCCN)NC(=O)[C@@H](CC(C)C)NC(=O)[C@@H](CCCCNC(=O)[C@@H](CC(C)C)NC(=O)CCCCCN)NC(=O)[C@@H](CC(C)C)NC(=O)CCCCCN)NC(=O)[C@@H](CCCCN)NC(=O)[C@@H](CC(C)C)NC(=O)[C@@H](CCCCNC(=O)[C@@H](CC(C)C)NC(=O)CCCCCN)NC(=O)[C@@H](CC(C)C)NC(=O)CCCCCN)C(N)=O [D-aX18] (I: H-[Ahx][dL][dK]([dL-Ahx])[dL][dK][dK]([dK-dL-X4])[dL][dL][dK][dL][dL][dL]-NH2 / II: H-[Ahx][dL][dK]([dL-Ahx])[dL][dK][dK]([dK-dL-X4])[dL][dL]; amide I:9-II:C)	21 ± 2 µg/mL (≈ 4.69 µM)
